For experiment [1], the system named is MOLM-13. Also noted: method as in PMID 30427680, PMID 34959180, PMID 34694800, PMID 36332882, PMID 38655686. The note with it: reported FLT3 PROTACs, Figure 1; cited from earlier work.
Experiment [2] addresses T1, CAMK1G (Homo sapiens, UniProt Q96NX5).
T1 construct: Full-length kinase ORF (Promega, Madison, WI, USA) cloned in frame with a NanoLuc-vector was transfected into HEK293T cells; host or cells: HEK293T
The experiment can be described thus: NanoBRET CELLinib128. The note with it: 100% no effect, 0% complete tracer displacement, read-out: Tracer bound. It counts as binding. (BRET reads energy transfer from a luciferase to a nearby fluorophore.)

The target of experiment [3] is T2, HUNK (Homo sapiens, UniProt P57058).
T2 construct: Full-length kinase ORF (Promega, Madison, WI, USA) cloned in frame with a NanoLuc-vector was transfected into HEK293T cells; host or cells: HEK293T
T2 sequence (P57058 whole entry): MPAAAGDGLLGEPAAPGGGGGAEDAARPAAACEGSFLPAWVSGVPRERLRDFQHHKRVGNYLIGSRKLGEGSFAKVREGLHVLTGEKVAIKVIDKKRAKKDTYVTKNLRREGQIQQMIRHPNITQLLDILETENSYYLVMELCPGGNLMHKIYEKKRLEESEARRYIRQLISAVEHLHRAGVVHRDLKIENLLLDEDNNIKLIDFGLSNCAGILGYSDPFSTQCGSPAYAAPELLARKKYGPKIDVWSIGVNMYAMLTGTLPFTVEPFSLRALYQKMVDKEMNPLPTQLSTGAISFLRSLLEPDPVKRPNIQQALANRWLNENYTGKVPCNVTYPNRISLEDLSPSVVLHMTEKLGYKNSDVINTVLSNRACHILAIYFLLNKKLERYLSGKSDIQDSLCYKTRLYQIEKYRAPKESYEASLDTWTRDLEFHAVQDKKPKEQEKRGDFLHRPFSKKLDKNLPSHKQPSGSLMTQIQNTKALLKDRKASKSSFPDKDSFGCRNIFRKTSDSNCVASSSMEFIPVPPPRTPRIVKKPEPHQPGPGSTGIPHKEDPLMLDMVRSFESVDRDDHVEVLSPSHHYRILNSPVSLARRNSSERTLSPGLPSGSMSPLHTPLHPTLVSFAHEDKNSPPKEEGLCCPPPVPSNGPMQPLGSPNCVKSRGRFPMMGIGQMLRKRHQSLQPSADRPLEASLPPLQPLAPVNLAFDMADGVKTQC
The experiment can be described thus: NanoBRET CELLinib128. It counts as binding. The note with it: 100% no effect, 0% complete tracer displacement, read-out: Tracer bound. An outline of the steps:
(§1)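 HEK293T cells are transfected with NanoLuc-fused full-length kinase and left 20 h to express. Compound at 1 μM and tracer are added and equilibrated 2 h at 37 °C. Filtered luminescence then yields BRET, expressed relative to tracer and background controls.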

Experiment [4] concerns the target T3, ULK1 (Homo sapiens, UniProt O75385).
T3 construct: Full-length kinase ORF (Promega, Madison, WI, USA) cloned in frame with a NanoLuc-vector; host or cells: HEK293T
The experiment can be described thus: NanoBRET CELLinib128. The settings on record: 1 µM; 100% no effect, 0% complete tracer displacement. It counts as binding. The essentials:
as §1

The target of experiment [5] is T4, FRK (Homo sapiens, UniProt P42685).
T4 construct: Full-length kinase ORF (Promega, Madison, WI, USA) cloned in frame with a NanoLuc-vector was transfected into HEK293T cells; host or cells: HEK293T
T4 sequence (P42685 whole entry): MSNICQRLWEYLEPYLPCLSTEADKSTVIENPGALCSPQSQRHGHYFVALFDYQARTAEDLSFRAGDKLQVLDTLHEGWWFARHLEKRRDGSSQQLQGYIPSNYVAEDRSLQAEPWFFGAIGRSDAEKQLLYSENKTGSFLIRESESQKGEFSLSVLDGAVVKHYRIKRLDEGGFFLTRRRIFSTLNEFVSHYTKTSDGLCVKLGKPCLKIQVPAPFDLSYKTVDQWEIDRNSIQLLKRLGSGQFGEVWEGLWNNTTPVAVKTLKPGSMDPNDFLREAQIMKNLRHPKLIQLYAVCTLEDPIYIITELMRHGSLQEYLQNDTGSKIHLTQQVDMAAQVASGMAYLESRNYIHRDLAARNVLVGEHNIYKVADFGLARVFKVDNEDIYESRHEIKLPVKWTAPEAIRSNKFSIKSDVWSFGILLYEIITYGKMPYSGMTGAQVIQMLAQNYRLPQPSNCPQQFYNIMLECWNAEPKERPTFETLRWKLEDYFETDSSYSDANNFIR
The experiment can be described thus: NanoBRET CELLinib128. It counts as binding. The note with it: 100% no effect, 0% complete tracer displacement, read-out: Tracer bound.

The target in experiment [6] is T5, MARK2 (Homo sapiens, UniProt Q7KZI7).
T5 construct: Full-length kinase ORF (Promega, Madison, WI, USA) cloned in frame with a NanoLuc-vector was transfected into HEK293T cells; host or cells: HEK293T
The experiment can be described thus: NanoBRET CELLinib128. The settings on record: 100% no effect, 0% complete tracer displacement, read-out: Tracer bound. It counts as binding.

Experiment [7] has as its target ALK (Homo sapiens, UniProt Q9UM73). The experiment can be described thus: NanoBRET CELLinib128. The settings on record: read-out: Tracer bound.
Experiment [8] concerns the target EPHA4 (Homo sapiens, UniProt P54764). The experiment can be described thus: NanoBRET CELLinib128. The settings on record: read-out: Tracer bound.
The target in experiment [9] is EPHB4 (Homo sapiens, UniProt P54760). Briefly: NanoBRET CELLinib128. The note with it: read-out: Tracer bound.
EPHB4, sequence (P54760 16-987): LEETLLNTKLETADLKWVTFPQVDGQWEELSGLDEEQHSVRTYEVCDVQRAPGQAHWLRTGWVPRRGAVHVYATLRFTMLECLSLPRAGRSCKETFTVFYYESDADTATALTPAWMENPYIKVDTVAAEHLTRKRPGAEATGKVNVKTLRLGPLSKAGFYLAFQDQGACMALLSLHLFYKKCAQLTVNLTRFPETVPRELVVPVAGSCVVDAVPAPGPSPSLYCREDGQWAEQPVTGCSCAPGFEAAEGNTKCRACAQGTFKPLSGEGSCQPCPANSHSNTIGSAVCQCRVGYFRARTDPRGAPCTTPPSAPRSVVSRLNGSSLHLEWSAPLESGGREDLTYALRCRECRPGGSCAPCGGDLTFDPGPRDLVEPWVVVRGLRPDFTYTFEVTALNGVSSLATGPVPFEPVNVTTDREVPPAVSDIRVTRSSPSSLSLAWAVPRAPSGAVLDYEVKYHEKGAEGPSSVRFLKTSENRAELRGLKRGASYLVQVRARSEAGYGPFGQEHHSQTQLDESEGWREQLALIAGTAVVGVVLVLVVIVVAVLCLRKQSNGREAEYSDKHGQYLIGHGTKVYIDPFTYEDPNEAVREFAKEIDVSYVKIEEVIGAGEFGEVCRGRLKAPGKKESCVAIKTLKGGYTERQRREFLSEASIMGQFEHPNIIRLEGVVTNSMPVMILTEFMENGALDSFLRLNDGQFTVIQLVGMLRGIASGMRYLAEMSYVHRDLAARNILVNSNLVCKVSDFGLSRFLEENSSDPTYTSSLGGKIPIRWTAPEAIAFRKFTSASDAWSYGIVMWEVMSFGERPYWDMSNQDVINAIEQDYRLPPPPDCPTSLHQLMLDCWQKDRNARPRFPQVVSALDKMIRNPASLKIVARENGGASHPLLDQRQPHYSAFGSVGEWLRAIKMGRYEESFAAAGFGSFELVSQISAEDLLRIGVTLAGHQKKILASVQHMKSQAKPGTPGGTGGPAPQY
For experiment [10], the target named is RIPK1 (Homo sapiens, UniProt Q13546). Briefly: NanoBRET CELLinib128. The settings on record: read-out: Tracer bound.
RIPK1, sequence (Q13546 whole entry): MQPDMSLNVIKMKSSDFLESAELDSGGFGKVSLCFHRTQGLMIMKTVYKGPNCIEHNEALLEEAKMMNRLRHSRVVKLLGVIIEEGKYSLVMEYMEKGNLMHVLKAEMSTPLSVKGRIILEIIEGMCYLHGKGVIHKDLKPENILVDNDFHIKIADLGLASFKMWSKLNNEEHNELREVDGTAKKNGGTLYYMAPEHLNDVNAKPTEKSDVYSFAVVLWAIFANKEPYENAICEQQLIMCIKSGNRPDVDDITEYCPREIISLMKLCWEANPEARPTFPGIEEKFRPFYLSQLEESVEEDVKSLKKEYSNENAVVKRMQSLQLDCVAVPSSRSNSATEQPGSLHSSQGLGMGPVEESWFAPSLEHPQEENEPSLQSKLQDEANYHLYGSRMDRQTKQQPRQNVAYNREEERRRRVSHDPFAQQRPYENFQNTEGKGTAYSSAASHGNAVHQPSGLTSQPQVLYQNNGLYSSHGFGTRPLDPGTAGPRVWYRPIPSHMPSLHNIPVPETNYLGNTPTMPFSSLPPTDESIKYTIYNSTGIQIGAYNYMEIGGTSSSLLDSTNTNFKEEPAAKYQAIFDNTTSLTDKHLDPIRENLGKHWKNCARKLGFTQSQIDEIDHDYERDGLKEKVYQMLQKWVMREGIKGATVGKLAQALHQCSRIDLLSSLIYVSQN
For experiment [11], the target named is MAPK14 (Homo sapiens, UniProt Q16539). Briefly: MAPK14 degradation, immunoblot in leukemia cells. It counts as cell-based. Also noted: endogenous in cells; host or cells: K562, RS4-11, MV4-11, MOLM-13 (A17); MV4-11 (A20). The settings on record: K562, RS4-11, MV4-11 and MOLM-13 cells; 50 nM MA191, 24 h. For orientation: A western blot detects proteins with antibodies after separation by electrophoresis.
MAPK14, sequence (Q16539 2-360 limits assumed): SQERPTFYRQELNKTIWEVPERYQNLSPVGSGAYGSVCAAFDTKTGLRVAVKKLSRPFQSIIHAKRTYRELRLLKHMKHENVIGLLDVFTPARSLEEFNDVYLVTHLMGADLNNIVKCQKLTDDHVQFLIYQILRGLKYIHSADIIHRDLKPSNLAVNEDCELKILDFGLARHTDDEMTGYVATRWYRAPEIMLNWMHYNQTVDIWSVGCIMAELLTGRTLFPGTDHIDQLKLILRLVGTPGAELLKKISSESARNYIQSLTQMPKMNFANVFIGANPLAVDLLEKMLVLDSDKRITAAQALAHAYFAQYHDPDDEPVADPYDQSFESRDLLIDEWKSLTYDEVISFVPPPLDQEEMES

Data on three compounds can be found in publication PMC13210772, “Dual FLT3/MAPK14 Proteolysis-Targeting Chimera (PROTAC) Induces Potent Acute Myeloid Leukemia Cell Death” (Pharmaceuticals, 2026).

T1 sequence (Q96NX5 whole entry): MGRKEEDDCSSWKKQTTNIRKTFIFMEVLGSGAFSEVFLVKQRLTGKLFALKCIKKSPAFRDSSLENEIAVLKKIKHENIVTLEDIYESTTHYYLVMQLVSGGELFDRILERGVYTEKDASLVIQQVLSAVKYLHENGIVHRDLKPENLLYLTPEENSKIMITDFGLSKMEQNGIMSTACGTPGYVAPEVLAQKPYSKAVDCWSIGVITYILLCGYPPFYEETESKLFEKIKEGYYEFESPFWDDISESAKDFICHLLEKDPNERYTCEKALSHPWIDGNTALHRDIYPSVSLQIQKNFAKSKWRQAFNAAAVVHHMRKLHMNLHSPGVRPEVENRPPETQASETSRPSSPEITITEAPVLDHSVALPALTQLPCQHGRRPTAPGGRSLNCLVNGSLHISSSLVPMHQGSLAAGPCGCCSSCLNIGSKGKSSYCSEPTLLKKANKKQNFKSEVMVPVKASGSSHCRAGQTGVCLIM
EPHA4, sequence (P54764 20-986): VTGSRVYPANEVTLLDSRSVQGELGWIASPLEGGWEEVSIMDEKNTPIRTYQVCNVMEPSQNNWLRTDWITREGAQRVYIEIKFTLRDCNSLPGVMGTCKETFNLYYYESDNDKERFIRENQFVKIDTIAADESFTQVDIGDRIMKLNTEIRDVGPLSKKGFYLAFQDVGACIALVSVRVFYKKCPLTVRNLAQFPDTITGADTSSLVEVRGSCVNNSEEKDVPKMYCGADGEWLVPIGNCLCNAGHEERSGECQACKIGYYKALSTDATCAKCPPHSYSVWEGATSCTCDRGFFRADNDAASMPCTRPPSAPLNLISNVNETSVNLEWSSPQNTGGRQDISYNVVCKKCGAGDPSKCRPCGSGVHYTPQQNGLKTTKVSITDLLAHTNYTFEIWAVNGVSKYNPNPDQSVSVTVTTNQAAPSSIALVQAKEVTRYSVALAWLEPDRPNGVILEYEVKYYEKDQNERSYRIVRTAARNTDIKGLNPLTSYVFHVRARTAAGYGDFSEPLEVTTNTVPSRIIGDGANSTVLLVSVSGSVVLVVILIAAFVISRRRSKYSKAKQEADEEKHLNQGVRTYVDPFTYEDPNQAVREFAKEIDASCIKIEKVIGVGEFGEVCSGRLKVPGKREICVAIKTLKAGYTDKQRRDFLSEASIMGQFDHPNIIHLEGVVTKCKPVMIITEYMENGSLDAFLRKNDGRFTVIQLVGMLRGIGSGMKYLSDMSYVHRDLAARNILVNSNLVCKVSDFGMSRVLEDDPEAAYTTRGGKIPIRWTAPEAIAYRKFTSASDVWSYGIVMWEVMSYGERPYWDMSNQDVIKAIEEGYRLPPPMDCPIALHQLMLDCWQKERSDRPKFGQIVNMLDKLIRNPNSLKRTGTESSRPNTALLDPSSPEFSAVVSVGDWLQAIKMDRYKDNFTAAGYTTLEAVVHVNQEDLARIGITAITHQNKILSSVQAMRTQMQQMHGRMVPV

On to `Cc1ncsc1-c1ccc([C@H](C)NC(=O)[C@@H]2C[C@@H](O)CN2C(=O)[C@@H](NC(=O)CCOCCOCCOCCNC(=O)c2cc(Oc3ccc(NC(=O)Nc4cc(C(C)(C)C)on4)cc3)ccn2)C(C)(C)C)cc1` [MA49, reference compound], for which the IC50 in experiment [1] was 4.8 ± 3.7 nM.

For `CNC(=O)c1cc(Oc2ccc(NC(=O)Nc3cc(C(C)(C)C)on3)cc2)ccn1` [MA68, reference compound], the remaining activity at 1 µM in experiment [2] amounted to 101%; in experiment [3], 88.2%; in [5], 68.2%; in [6] it was 112%; in experiment [7], 109%; in [8], 33.7%. Moreover, the remaining activity at 1 µM was 3.8% in [9] and 93.3% in [10]. The same compound had a Tracer bound in [4] of 117.4%.

`Cc1ncsc1-c1ccc([C@H](C)NC(=O)[C@@H]2C[C@@H](O)CN2C(=O)[C@@H](NC(=O)[C@H]2CC[C@H](C(=O)N3CCN(CCNC(=O)c4cc(Oc5ccc(NC(=O)Nc6cc(C(C)(C)C)on6)cc5)ccn4)CC3)CC2)C(C)(C)C)cc1` [MA191, 4-(4-(3-(5-(tert-Butyl)isoxazol-3-yl)ureido)phenoxy)-N-(2-(4-(trans-4-(((S)-1-((2S,4R)-4-hydroxy-2-(((S)-1-(4-(4-methylthiazol-5-yl)phenyl)ethyl)carbamoyl)pyrrolidin-1-yl)-3,3-dimethyl-1-oxobutan-2-yl)carbamoyl)cyclohexanecarbonyl)piperazin-1-yl)ethyl)picolinamide]: the remaining activity at 1 µM in [2] is 91.6%; in experiment [3] it was 103%; in [5] it was 117%; in experiment [6], 110%; in experiment [7], 105%; in [8] it was 118%. For the same compound, the remaining activity at 1 µM in [9] came out at 120%; in [10] it was 104%. The “MAPK14 protein level, immunoblot” value in [11] is given as “depleted MAPK14”.

Usually IC50 stands for the midpoint of a concentration-inhibition curve.
